Experimental data from patent US8778643B2, “Methods for increasing lipid levels and producing triacylglycerols in algae” (priority 2012, dated 2014).
Where two headings read alike, the source gives them in different places.

What was measured:
[1] = tested on: Nannochloropsis salina
[2] = tested on: Nannochloris sp.; assay: Microplate assay: growth (absorbance 680 nm) and intracellular lipids (Nile Red fluorescence); format: cell-based; details: for Absorbance (percent increase) / Nile Red percent increase: 200 nM, initial microplate screen, relative to control; for Nile Red Fluorescence % Increase: Nannochloris sp., initial screening, p<0.05
[3] = tested on: Phaeodactylum tricornutum; assay: as above; format: cell-based
Method: Stock cultures were aerated by stirring with bubbling air (homemade manifold with Petco air pump, 2-4% CO2) or by orbital shaking (Thermo Scientific MAXQ 2000) at a constant speed of 150 rpm at 22±3° C. with a 16:8 hour light/dark cycle. Stocks were kept at stationary phase for use. Algae were prepared as dictated by culture center.
Compounds were selected based on reported biological activity in non-microalgae organisms. To ensure that compounds retained their quality, they were stored under advised conditions after purchasing from the manufacturer. Solutions of all assay compounds were prepared as 10 mM stock solutions by dissolving in DMSO in 2-dram amber vials and then stored in darkness −20° C. 96-well PCR plates were used to create a stock plate layout that was then transferred to the algae microplates. A plate map was used to distribute each compound to a well based on molecule name, collection number, and CAS number. For 20 μM and 200 nM assay plates, 10 mM compound stock in DMSO was diluted into plate maps of 5 mM and 50 μM assay stocks, respectively.
All materials for assay experiments were autoclaved before each use to maintain axenic algae cultures. Algae species were checked for homogeneity using a TS-100 light microscope (Nikon, Japan). […] Diluted stock solutions were made immediately prior to use for consistency and optimal plate growth. Cell density was measured on a Thermo Scientific Genesys 10S Vis Spectrophotometer (ThermoFisher, San Jose), using a 1 mL cuvette at 680 nm.
Plates were originally run in triplicate, before replicates were increased to quadruplicate, along with a separate control plate to compare growth. Due to extensive evaporation in exterior wells over time, our unique algae plate layout was designed to use the 60 interior wells out of 96 wells for the experiment. The 36 outer wells were filled with Millipore water and media to prevent evaporation and edge effects in the inner algae wells, as well as serve as blanks. The 60 wells with algae contained a total volume of 251 μL (100 μL of media+DMSO compound stock +150 μL dilute algae stock). For 20 μM and 200 nM assay plates, 10 mM compound stock in DMSO is diluted into plate maps of 5 mM and 50 μM assay stocks, respectively. […] Plates were parafilmed during growth to limit the amount of evaporation that can occur. Plates were numbered, and numerically ordered to ensure they got the same shaker space.
The shakers are kept at a constant shaking of 150 rpm. Ambient temperature is 22±3° C.

[4] = tested on: antioxidant response element; details: cited from earlier work
[5] = target: CDK6 (Homo sapiens, UniProt Q00534); details: cited from earlier work
[6] = target: protein phosphatase 2A (Homo sapiens, UniProt P67775); details: cited from earlier work
[7] = tested on: Nannochloropsis oculata; details: 55.2-165.6 nM
[8] = target: CDC25 phosphatase 25A (Homo sapiens, UniProt P30304); details: cited from earlier work
[9] = target: CDC25 phosphatase 25C (Homo sapiens, UniProt P30307); details: cited from earlier work
[10] = target: T1, CDC25 phosphatase 25C-cat (Homo sapiens, UniProt P30307); details: cited from earlier work
T1 construct: 25C-cat

[11] = tested on: Nannochloropsis sp.; assay: Microplate assay: increase of lipid production (Table 17); format: cell-based; details: best conc. 2.4 nM
Excerpt: We also tested a collection with more antioxidants, kinase inhibitors, and further compounds for increase of lipid production with N. salina, P. tricornutum, N. oculata, and Nannochloropsis sp.

[12] = target: arachidonate 15-LO (Homo sapiens, UniProt P16050); details: cited from earlier work
[13] = 200 nM, initial microplate screen, relative to control

CDC25 phosphatase 25A, sequence (P30304 whole entry): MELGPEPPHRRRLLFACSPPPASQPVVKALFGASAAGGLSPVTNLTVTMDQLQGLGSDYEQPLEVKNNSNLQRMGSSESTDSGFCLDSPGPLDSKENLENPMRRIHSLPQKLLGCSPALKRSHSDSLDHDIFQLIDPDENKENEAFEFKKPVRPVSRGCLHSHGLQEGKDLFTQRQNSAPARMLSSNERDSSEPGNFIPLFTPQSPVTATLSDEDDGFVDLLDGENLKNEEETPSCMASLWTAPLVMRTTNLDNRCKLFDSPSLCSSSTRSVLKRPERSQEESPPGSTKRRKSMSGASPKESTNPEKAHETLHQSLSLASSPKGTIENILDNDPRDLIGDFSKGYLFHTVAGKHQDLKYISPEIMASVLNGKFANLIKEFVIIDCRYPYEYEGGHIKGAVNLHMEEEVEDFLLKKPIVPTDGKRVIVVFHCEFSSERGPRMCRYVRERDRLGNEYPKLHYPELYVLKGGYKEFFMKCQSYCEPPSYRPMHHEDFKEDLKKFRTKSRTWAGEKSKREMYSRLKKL
CDK6, sequence (Q00534 whole entry, looked up): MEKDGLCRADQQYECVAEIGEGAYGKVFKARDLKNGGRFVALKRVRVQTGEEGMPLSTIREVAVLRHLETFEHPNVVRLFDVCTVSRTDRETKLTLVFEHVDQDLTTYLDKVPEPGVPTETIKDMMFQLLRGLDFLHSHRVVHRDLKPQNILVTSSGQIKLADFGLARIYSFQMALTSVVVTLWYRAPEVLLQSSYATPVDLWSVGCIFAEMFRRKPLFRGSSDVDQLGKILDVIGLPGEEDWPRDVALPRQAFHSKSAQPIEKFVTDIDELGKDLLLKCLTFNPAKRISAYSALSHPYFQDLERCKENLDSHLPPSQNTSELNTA
T1 sequence (P30307 321-428 limits assumed): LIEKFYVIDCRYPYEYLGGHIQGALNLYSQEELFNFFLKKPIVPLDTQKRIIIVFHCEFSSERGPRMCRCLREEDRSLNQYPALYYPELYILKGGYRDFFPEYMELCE
CDC25 phosphatase 25C, sequence (P30307 whole entry): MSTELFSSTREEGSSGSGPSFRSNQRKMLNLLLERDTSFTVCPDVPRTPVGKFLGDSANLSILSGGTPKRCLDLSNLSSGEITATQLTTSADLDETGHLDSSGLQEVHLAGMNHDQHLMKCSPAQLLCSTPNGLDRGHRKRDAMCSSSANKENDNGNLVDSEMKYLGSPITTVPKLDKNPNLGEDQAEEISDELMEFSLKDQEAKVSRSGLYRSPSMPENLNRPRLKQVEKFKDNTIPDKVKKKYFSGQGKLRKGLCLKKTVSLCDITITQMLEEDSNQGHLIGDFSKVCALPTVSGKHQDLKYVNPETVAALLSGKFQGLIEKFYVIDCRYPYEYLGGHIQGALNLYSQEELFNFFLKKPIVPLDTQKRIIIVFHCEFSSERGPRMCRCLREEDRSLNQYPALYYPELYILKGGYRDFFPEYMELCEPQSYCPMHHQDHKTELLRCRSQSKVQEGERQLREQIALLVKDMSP
arachidonate 15-LO, sequence (P16050 whole entry): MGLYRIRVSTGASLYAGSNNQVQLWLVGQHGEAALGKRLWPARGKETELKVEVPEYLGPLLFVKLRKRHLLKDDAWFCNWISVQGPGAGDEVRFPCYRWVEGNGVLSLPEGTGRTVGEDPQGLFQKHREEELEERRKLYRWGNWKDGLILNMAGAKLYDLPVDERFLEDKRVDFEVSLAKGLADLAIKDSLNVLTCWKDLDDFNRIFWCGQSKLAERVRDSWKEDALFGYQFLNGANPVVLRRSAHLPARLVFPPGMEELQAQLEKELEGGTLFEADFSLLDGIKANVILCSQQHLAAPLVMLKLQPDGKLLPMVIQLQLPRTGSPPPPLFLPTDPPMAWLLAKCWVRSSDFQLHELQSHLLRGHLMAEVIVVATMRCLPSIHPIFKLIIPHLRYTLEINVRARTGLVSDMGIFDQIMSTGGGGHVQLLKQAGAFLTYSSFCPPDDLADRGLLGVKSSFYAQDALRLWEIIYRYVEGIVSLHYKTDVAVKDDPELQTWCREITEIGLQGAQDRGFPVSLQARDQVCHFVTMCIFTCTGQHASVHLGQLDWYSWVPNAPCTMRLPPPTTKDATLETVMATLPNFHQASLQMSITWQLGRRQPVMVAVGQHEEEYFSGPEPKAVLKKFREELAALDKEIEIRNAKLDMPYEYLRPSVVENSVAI
protein phosphatase 2A, sequence (P67775 whole entry): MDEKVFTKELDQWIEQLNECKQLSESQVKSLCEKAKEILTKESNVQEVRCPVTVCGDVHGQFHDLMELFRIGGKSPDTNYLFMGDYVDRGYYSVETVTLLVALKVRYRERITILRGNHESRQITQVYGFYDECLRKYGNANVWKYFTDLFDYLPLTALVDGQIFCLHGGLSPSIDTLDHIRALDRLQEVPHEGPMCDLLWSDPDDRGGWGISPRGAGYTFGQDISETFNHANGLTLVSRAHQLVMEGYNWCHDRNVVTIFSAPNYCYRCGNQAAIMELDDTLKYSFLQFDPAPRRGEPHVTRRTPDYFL

Q: For CC1=CC(=O)CC(C)(C)[C@@]1(O)/C=C/C(C)=C\C(=O)O [Abscisic acid, (2Z,4E)-5-[(1S)-1-hydroxy-2,6,6-trimethyl-4-oxocyclohex-2-en-1-yl]-3-methylpenta-2,4-dienoic acid], which “Nile Red Fluorescence % Increase” value ([1]; N. salina, compounds tested at 20 μM, initial screening, p<0.05) is on record?
A: The value was 34.5%.

Q: And the “Absorbance (percent increase)” value [2]?
A: The value was −2.6%.

Q: What about the “Nile Red percent increase” value [2] of the same molecule?
A: Its value is 61.6%.

Q: What about the “Nile Red Fluorescence % Increase” value ([2]; compounds tested at 200 nM) of the same molecule?
A: Its value is 90.8%.

Q: What about the “Absorbance (percent increase)” value [3, 13] of the same molecule?
A: Its value is −1.2%.

Q: What about the “Nile Red percent increase” value [3, 13] of the same molecule?
A: The value was 87.0%.

Q: What about the “Nile Red Fluorescence % Increase” value ([3]; P. tricornutum, compounds tested at 200 nM, initial screening, p<0.05) of the same molecule?
A: The value was 87.0%.

Q: What about the “agonist of antioxidant response element at” value [4] of the same molecule?
A: The value was “element at 37.6 μM)”.

Q: Which results are given for CCNc1cc(N[C@H]2CC[C@H](O)CC2)nc(Nc2ccc3c(ccn3Cc3ccccc3)c2)n1 [CDK4/6 Inhibitor 4, trans-4-((6-(ethylamino)-2-((1-(phenylmethyl)-1H-indol-5-yl)amino)-4-pyrimidinyl)amino)-cyclohexanol]?
A: IC50 [5]: 5.6 µM; % Increase based on Nile Red Fluorescence Intensity ([3]; P. tricornutum, 10 μM, DMSO delivery, added t=day 0): 50%

Q: Which “% increase (lipid production)” value ([1]; 0.0252-0.681 nM) does the source give for CC12C(=O)OC(=O)C1(C)C1CCC2O1 (stereo not drawn) [Cantharidin, 2,6-Dimethyl-4,10-dioxatricyclo-[5.2.1.0^2,6]decane-3,5-dione] here?
A: Its value is 1-15%.

Q: And the “% increase (lipid production)” value ([1]; 0.0252-165 nM (H2O))?
A: The value was 7-87%.

Q: What about the “Absorbance (percent increase)” value [2] of the same molecule?
A: Its value is −6.5%.

Q: And the “Nile Red percent increase” value [2]?
A: The value was 64.5%.

Q: And the “Nile Red Fluorescence % Increase” value ([2]; compounds tested at 20 μM)?
A: The value was 22.9%.

Q: What about the IC50 [6] of the same molecule?
A: The IC50 was 0.04 µM.

Q: What about the “% increase (lipid production)” value ([3]; 0.0252-0.0757 nM) of the same molecule?
A: The value was 9-35%.

Q: And the “% increase (lipid production)” value ([3]; 0.0252-165.6 nM (H2O))?
A: Its value is 0.17-168.19%.

Q: What about the “% increase (lipid production)” value [7] of the same molecule?
A: The value was 11-54%.

Q: What does the source list for “6-Chloro-7-(2-morpholin-4-yl-ethylamino)-quinoline-5,8-dione [CDC25 Phosphatase Inhibitor I]”?
A: IC50 [8]: 2.4 µM; IC50 [9]: 5.4 µM; IC50 [10]: 4.6 µM

Q: For CC(=O)Nc1ccc(O)cc1 [Acetaminophen, N-(4-hydroxyphenyl)ethanamide], which “Absorbance (percent increase)” value [2] is on record?
A: The value was −6.7%.

Q: And the “Nile Red percent increase” value [2]?
A: Its value is 68.9%.

Q: And the “Nile Red Fluorescence % Increase” value ([2]; compounds tested at 20 μM)?
A: Its value is 89.7%.

Q: What about the “% Inc” value [11] of the same molecule?
A: Its value is 13.11%.

Q: What about the IC50 [12] of the same molecule?
A: Its IC50 is 28.4 µM.
